Where “and” joins values, the source holds several entries; their conditions need not be identical. Equal values may be shown once.
Legend:
Format in all cases: biochemical
Settings in all cases: for HDAC Activity (Fluorescent counts): Repeat1/Repeat 2
HDAC10 = target: T1, HDAC10 (Homo sapiens, UniProt Q969S8); test: In vitro HDAC profiling (deacetylation assay), HDAC10
T1 construct: purchased BPS Bioscience #50051-11
T1 sequence (Q969S8 1-669): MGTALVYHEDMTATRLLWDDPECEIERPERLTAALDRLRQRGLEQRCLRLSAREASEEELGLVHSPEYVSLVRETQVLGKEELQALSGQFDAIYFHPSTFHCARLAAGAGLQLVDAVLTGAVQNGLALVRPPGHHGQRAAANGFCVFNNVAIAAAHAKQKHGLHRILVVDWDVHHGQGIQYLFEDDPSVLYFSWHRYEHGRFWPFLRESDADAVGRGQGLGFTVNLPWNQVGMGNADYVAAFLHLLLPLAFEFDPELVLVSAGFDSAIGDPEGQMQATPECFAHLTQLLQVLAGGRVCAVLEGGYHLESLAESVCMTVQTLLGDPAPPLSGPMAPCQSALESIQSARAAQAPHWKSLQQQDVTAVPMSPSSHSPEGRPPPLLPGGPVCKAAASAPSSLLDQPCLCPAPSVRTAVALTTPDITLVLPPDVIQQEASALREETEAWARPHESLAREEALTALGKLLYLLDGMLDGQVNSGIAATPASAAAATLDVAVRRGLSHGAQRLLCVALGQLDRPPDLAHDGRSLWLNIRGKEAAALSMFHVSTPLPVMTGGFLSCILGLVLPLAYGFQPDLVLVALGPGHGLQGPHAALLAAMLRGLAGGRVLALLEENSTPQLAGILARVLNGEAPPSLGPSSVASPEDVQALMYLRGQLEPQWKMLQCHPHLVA
Procedure: (§1) HDAC profiling was performed at BPS Bioscience (San Diego, CA). All of the compounds are dissolved in DMSO. A series of dilutions of the compounds were prepared with 10% DMSO in HDAC assay buffer (#50031) and 5 µl of the dilution was added to a 50 µl reaction so that the final concentration of DMSO is 1% in all of reactions. All of the enzymatic reactions were conducted in duplicate at 37 °C for 30 mins, except that the enzyme reactions for HDAC11 were at room temperature for 3 hrs. All of the reactions were performed in a 50 µl mixture containing HDAC assay buffer, 5 µg BSA, an HDAC substrate [HDAC Substrate 3 (BPS number 50037) or HDAC Class 2a Substrate 1 (BPS number 50040)], an HDAC enzyme (#50051-11) and a test compound. After enzymatic reactions, 50 μl of HDAC Developer (#50030) was added to each well and the plate was incubated at room temperature for an additional 20 mins. Fluorescence intensity was measured at an excitation of 360 nm and an emission of 460 nm using a Tecan Infinite M1000 microplate reader. HDAC activity assays were performed in duplicates at each concentration. The fluorescent intensity data were analyzed using the computer software, Graphpad Prism. In the absence of the compound, the fluorescent intensity (Ft) in each data set was defined as 100% activity. In the absence of HDAC, the fluorescent intensity (Fb) in each data set was defined as 0% activity. The percent activity in the presence of each compound was calculated according to the following equation: %activity = (F − Fb)/(Ft − Fb), where F = the fluorescent intensity in the presence of the compound. The values of % activity versus a series of compound concentrations were then plotted using non-linear regression analysis of Sigmoidal dose-response curve generated with the equation Y = B + (T − B)/1 + 10((LogIC50 − X) × Hill Slope), where Y = percent activity, B = minimum percent activity, T = maximum percent activity, X = logarithm of compound and Hill Slope = slope factor or Hill coefficient. The IC50 value was determined by the concentration causing a half-maximal percent activity.

HDAC2 = target: T2, HDAC2 (Homo sapiens, UniProt Q92769); test: In vitro HDAC profiling (deacetylation assay), HDAC2
T2 construct: purchased BPS Bioscience #50051-11
T2 sequence (Q92769 whole entry): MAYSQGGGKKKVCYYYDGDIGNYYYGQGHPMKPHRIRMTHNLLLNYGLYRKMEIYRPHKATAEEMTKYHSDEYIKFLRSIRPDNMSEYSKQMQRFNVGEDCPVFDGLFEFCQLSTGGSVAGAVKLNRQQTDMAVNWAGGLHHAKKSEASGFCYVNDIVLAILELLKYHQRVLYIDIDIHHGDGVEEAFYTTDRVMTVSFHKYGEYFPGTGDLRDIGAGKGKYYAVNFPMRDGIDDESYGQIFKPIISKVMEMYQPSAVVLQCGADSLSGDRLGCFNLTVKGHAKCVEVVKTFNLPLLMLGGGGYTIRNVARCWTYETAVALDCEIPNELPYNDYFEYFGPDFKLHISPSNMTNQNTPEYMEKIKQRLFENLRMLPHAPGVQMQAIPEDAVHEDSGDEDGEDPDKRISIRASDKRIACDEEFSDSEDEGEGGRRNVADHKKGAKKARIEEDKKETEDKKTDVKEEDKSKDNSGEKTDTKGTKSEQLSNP
Procedure: as §1

HDAC1 = target: T3, HDAC1 (Homo sapiens, UniProt Q13547); test: In vitro HDAC profiling (deacetylation assay), HDAC1
T3 construct: purchased BPS Bioscience #50051-11
T3 sequence (Q13547 whole entry): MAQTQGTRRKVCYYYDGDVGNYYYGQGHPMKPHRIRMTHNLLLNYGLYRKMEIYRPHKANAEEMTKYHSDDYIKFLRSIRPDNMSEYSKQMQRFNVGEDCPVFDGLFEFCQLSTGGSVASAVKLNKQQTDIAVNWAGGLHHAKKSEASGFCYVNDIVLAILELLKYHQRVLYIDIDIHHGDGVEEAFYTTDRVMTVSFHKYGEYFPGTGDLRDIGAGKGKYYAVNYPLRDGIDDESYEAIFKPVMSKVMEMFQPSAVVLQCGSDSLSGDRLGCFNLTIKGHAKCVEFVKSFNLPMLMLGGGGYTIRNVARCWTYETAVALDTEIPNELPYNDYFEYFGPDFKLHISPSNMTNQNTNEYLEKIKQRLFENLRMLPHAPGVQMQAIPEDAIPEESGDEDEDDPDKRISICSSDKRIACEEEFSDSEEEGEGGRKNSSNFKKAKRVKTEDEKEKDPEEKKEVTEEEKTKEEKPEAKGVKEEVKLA
Procedure: as §1

HDAC8 = target: T4, HDAC8 (Homo sapiens, UniProt Q9BY41); test: In vitro HDAC profiling (deacetylation assay), HDAC8
T4 construct: purchased BPS Bioscience #50051-11
T4 sequence (Q9BY41 1-377): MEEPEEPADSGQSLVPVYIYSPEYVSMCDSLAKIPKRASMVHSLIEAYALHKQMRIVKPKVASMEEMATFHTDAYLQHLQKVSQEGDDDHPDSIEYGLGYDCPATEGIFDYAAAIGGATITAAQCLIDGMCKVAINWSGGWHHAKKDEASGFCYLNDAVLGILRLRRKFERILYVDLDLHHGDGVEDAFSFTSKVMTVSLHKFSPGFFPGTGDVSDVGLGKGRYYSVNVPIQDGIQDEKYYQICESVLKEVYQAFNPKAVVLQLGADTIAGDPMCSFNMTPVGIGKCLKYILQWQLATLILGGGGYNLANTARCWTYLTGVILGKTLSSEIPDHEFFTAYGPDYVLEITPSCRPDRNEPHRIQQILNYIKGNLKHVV
Procedure: as §1

[1] = in vitro deacetylation assay, duplicates

O=C(CCCCCCC(=O)Nc1ccc(Cl)c(C(=O)Nc2ccc(NC(=O)c3cc(Cl)ccc3Cl)cc2)c1)NO [IHR-SAHA]
HDAC Activity (Fluorescent counts) (HDAC10; HDAC10, WW01 0 Log nM): 21183 Fluorescent counts and 21616 Fluorescent counts | HDAC Activity (Fluorescent counts) (HDAC10; HDAC10, WW01 0.5 Log nM): 20859 Fluorescent counts and 21260 Fluorescent counts | HDAC Activity (Fluorescent counts) (HDAC10; HDAC10, WW01 1 Log nM): 19414 Fluorescent counts and 20650 Fluorescent counts | HDAC Activity (Fluorescent counts) (HDAC10; HDAC10, WW01 1.5 Log nM): 17046 Fluorescent counts and 19100 Fluorescent counts | HDAC Activity (Fluorescent counts) (HDAC10; HDAC10, WW01 2 Log nM): 13500 Fluorescent counts and 13556 Fluorescent counts | HDAC Activity (Fluorescent counts) (HDAC10; HDAC10, WW01 2.5 Log nM): 9393 Fluorescent counts and 9233 Fluorescent counts | HDAC Activity (Fluorescent counts) (HDAC10; HDAC10, WW01 3 Log nM): 6324 Fluorescent counts and 6307 Fluorescent counts | HDAC Activity (Fluorescent counts) (HDAC10; HDAC10, WW01 3.5 Log nM): 4593 Fluorescent counts and 4402 Fluorescent counts | HDAC Activity (Fluorescent counts) (HDAC10; HDAC10, WW01 4 Log nM): 3949 Fluorescent counts and 4170 Fluorescent counts | HDAC Activity (Fluorescent counts) (HDAC10; HDAC10, WW01 -0.5 Log nM): 22257 Fluorescent counts and 21526 Fluorescent counts | IC50 (HDAC10; [1]): 174 nM | HDAC Activity (Fluorescent counts) (HDAC2; HDAC2, WW01 0 Log nM): 25941 Fluorescent counts and 27493 Fluorescent counts | HDAC Activity (Fluorescent counts) (HDAC2; HDAC2, WW01 0.5 Log nM): 25227 Fluorescent counts and 26727 Fluorescent counts | HDAC Activity (Fluorescent counts) (HDAC2; HDAC2, WW01 1 Log nM): 25275 Fluorescent counts and 25129 Fluorescent counts | HDAC Activity (Fluorescent counts) (HDAC2; HDAC2, WW01 1.5 Log nM): 23536 Fluorescent counts and 23240 Fluorescent counts | HDAC Activity (Fluorescent counts) (HDAC2; HDAC2, WW01 2 Log nM): 22337 Fluorescent counts and 21686 Fluorescent counts | HDAC Activity (Fluorescent counts) (HDAC2; HDAC2, WW01 2.5 Log nM): 18050 Fluorescent counts and 16002 Fluorescent counts | HDAC Activity (Fluorescent counts) (HDAC2; HDAC2, WW01 3 Log nM): 12392 Fluorescent counts and 11718 Fluorescent counts | HDAC Activity (Fluorescent counts) (HDAC2; HDAC2, WW01 3.5 Log nM): 9603 Fluorescent counts and 9800 Fluorescent counts | HDAC Activity (Fluorescent counts) (HDAC2; HDAC2, WW01 4 Log nM): 7673 Fluorescent counts and 7404 Fluorescent counts | HDAC Activity (Fluorescent counts) (HDAC2; HDAC2, WW01 -0.5 Log nM): 26601 Fluorescent counts and 28049 Fluorescent counts | IC50 (HDAC2; [1]): 746 nM | HDAC Activity (Fluorescent counts) (HDAC1; HDAC1, WW01 0 Log nM): 31058 Fluorescent counts and 32831 Fluorescent counts | HDAC Activity (Fluorescent counts) (HDAC1; HDAC1, WW01 0.5 Log nM): 31900 Fluorescent counts and 30926 Fluorescent counts | HDAC Activity (Fluorescent counts) (HDAC1; HDAC1, WW01 1 Log nM): 29505 Fluorescent counts and 28223 Fluorescent counts | HDAC Activity (Fluorescent counts) (HDAC1; HDAC1, WW01 1.5 Log nM): 27089 Fluorescent counts and 26820 Fluorescent counts | HDAC Activity (Fluorescent counts) (HDAC1; HDAC1, WW01 2 Log nM): 21883 Fluorescent counts and 21225 Fluorescent counts | HDAC Activity (Fluorescent counts) (HDAC1; HDAC1, WW01 2.5 Log nM): 19997 Fluorescent counts and 14409 Fluorescent counts | HDAC Activity (Fluorescent counts) (HDAC1; HDAC1, WW01 3 Log nM): 9008 Fluorescent counts and 8923 Fluorescent counts | HDAC Activity (Fluorescent counts) (HDAC1; HDAC1, WW01 3.5 Log nM): 7360 Fluorescent counts and 7292 Fluorescent counts | HDAC Activity (Fluorescent counts) (HDAC1; HDAC1, WW01 4 Log nM): 6195 Fluorescent counts and 6043 Fluorescent counts | HDAC Activity (Fluorescent counts) (HDAC1; HDAC1, WW01 -0.5 Log nM): 31660 Fluorescent counts and 32681 Fluorescent counts | IC50 (HDAC1; [1]): 285 nM | HDAC Activity (Fluorescent counts) (HDAC8; HDAC8, WW01 0 Log nM): 21093 Fluorescent counts and 21821 Fluorescent counts | HDAC Activity (Fluorescent counts) (HDAC8; HDAC8, WW01 0.5 Log nM): 22364 Fluorescent counts and 22102 Fluorescent counts | HDAC Activity (Fluorescent counts) (HDAC8; HDAC8, WW01 1 Log nM): 22562 Fluorescent counts and 22110 Fluorescent counts | HDAC Activity (Fluorescent counts) (HDAC8; HDAC8, WW01 1.5 Log nM): 21528 Fluorescent counts and 20488 Fluorescent counts | HDAC Activity (Fluorescent counts) (HDAC8; HDAC8, WW01 2 Log nM): 18696 Fluorescent counts and 20642 Fluorescent counts | HDAC Activity (Fluorescent counts) (HDAC8; HDAC8, WW01 2.5 Log nM): 20242 Fluorescent counts and 19075 Fluorescent counts | HDAC Activity (Fluorescent counts) (HDAC8; HDAC8, WW01 3 Log nM): 18387 Fluorescent counts and 19845 Fluorescent counts | HDAC Activity (Fluorescent counts) (HDAC8; HDAC8, WW01 3.5 Log nM): 17109 Fluorescent counts and 19683 Fluorescent counts | HDAC Activity (Fluorescent counts) (HDAC8; HDAC8, WW01 4 Log nM): 16686 Fluorescent counts and 18294 Fluorescent counts | HDAC Activity (Fluorescent counts) (HDAC8; HDAC8, WW01 -0.5 Log nM): 19254 Fluorescent counts and 22456 Fluorescent counts | IC50 (HDAC8; [1]): > 10000 nM
